Test results from patent publication US6083944A, “Quinoline-containing α-ketoamide cysteine and serine protease inhibitors” (Cephalon, Inc., priority 1998, dated 2000).

Target: T1, Recombinant human calpain I (Homo sapiens, UniProt P07384)
T1 construct: made in house
T1 sequence (P07384 1-714): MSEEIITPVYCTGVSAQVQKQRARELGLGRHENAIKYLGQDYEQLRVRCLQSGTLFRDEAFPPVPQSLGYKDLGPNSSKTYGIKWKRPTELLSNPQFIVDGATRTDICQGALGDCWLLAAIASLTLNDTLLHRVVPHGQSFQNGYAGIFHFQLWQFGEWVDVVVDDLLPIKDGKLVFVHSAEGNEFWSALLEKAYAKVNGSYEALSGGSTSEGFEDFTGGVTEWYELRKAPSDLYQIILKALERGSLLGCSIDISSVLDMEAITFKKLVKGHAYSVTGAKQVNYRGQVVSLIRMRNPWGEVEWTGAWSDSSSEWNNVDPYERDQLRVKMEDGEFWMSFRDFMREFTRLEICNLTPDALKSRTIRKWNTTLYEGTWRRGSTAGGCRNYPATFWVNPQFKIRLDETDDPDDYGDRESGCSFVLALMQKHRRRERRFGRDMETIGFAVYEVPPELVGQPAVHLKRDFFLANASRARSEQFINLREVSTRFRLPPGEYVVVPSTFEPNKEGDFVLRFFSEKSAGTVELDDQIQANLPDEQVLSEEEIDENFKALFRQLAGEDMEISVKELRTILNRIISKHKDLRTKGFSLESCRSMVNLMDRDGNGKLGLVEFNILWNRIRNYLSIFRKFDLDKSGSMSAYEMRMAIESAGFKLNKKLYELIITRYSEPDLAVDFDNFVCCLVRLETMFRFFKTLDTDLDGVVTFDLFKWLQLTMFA
Test: Inhibition of calpain I (Succ-Leu-Tyr-MNA hydrolysis)
Assay type: biochemical
Conditions: Tables 2-4; for inhibition at 10 µM: values in parentheses, at 10,000 nM; for IC50: pH 7.5
Method: To evaluate inhibitory activity, stock solutions (40 times concentrated) of each compound to be tested were prepared in 100% anhydrous DMSO and 5 μl of each inhibitor preparation was aliquoted into each of three wells of a 96-well plate. Recombinant human calpain I, prepared by the method of Meyer et al. (Biochem. J. 1996, 314: 511-519), was diluted into assay buffer (i.e., 50 mM Tris, 50 mM NaCl, 1 mM EDTA, 1 mM EGTA, and 5 mM β-mercaptoethanol, pH 7.5, including 0.2 mM Succ-Leu-Tyr-MNA), and 175 μl was aliquoted into the same wells containing the independent inhibitor stocks as well as to positive control wells containing 5 μl DMSO, but no compound. To start the reaction, 20 μl of 50 mM CaCl2 in assay buffer was added to all wells of the plate, excepting three, which were used as background signal baseline controls. Substrate hydrolysis was monitored every 5 minutes for a total of 30 minutes. Substrate hydrolysis in the absence of inhibitor was linear for up to 15 minutes.
Inhibition of calpain I activity was calculated as the percent decrease in the rate of substrate hydrolysis in the presence of inhibitor relative to the rate in its absence. Comparison between the inhibited and control rates was made within the linear range for substrate hydrolysis. The IC50 S of inhibitors (concentration yielding 50% inhibition) were determined from the percent decrease in rates of substrate hydrolysis in the presence of five to seven different concentrations of the test compound. The results were plotted as percent inhibition versus log inhibitor concentration, and the IC50 was calculated by fitting the data to the four-parameter logistic equation shown below using the program GraphPad Prism (GraphPad Software, Inc., San Diego, Calif.).
The parameters a, b, c, and d are defined as follows: a is % inhibition in the absence of inhibitor, b is the slope, c is the IC50, and d is the % inhibition at an infinite concentration of inhibitor.

Row | inhibition at 10 µM [%] | IC50 [nM] | Compound
1 | 97 |  | O=C(NCCNS(=O)(=O)c1ccccc1)C(=O)C(Cc1ccccc1)NC(=O)c1ccnc2ccccc12 (single isomer, unassigned) [Example 131]
2 |  | 87 | O=C(NCCNS(=O)(=O)c1cccnc1)C(=O)C(Cc1ccccc1)NC(=O)c1cc(Cl)nc2ccccc12 (single isomer, unassigned) [Example 141]
3 |  | 24 | Cc1cc(C(=O)NC(Cc2ccccc2)C(=O)C(=O)NCCNS(=O)(=O)c2ccc(-c3ccccn3)s2)c2ccccc2n1 (single isomer, unassigned) [Example 142]
4 |  | 35 | COc1ccc2nc(C)cc(C(=O)NC(Cc3ccccc3)C(=O)C(=O)NCCNS(=O)(=O)c3ccc(-c4ccccn4)s3)c2c1 (single isomer, unassigned) [Example 143]
5 | 91 |  | C#CCNC(=O)C(=O)C(Cc1ccccc1)NC(=O)c1cc(C#Cc2ccccc2)nc2ccccc12 (centres unmarked) [Example 1]
6 | 98 |  | O=C(NCC(F)(F)F)C(=O)C(Cc1ccccc1)NC(=O)c1cc(C#Cc2ccccc2)nc2ccccc12 (centres unmarked) [Example 2]
7 |  | 210 | C=CCNC(=O)C(=O)C(Cc1ccccc1)NC(=O)c1cc(C#Cc2ccccc2)nc2ccccc12 (centres unmarked) [Example 3]
8 | 100 |  | O=C(NCC1CC1)C(=O)C(Cc1ccccc1)NC(=O)c1cc(C#Cc2ccccc2)nc2ccccc12 (centres unmarked) [Example 4]
9 | 95 |  | N#CCCNC(=O)C(=O)C(Cc1ccccc1)NC(=O)c1cc(C#Cc2ccccc2)nc2ccccc12 (centres unmarked) [Example 5]
10 | 89 |  | O=C(NCCC1=CCCCC1)C(=O)C(Cc1ccccc1)NC(=O)c1cc(C#Cc2ccccc2)nc2ccccc12 (centres unmarked) [Example 6]
11 |  | 110 | COC(CNC(=O)C(=O)C(Cc1ccccc1)NC(=O)c1cc(C#Cc2ccccc2)nc2ccccc12)OC (centres unmarked) [Example 7]
12 |  | 570 | COCCOCCCNC(=O)C(=O)C(Cc1ccccc1)NC(=O)c1cc(C#Cc2ccccc2)nc2ccccc12 (centres unmarked) [Example 8]
13 |  | 230 | CCCCCCOCCOCCOCCNC(=O)C(=O)C(Cc1ccccc1)NC(=O)c1cc(C#Cc2ccccc2)nc2ccccc12 (centres unmarked) [Example 9]
14 |  | 630 | O=C(NCCOCCO)C(=O)C(Cc1ccccc1)NC(=O)c1cc(C#Cc2ccccc2)nc2ccccc12 (centres unmarked) [Example 10]
15 |  | 480 | COCCNC(=O)C(=O)C(Cc1ccccc1)NC(=O)c1cc(C#Cc2ccccc2)nc2ccccc12 (centres unmarked) [Example 11]
16 | 94 |  | O=C(NCCCO)C(=O)C(Cc1ccccc1)NC(=O)c1cc(C#Cc2ccccc2)nc2ccccc12 (centres unmarked) [Example 12]
17 | 100 |  | O=C(NCCCCO)C(=O)C(Cc1ccccc1)NC(=O)c1cc(C#Cc2ccccc2)nc2ccccc12 (centres unmarked) [Example 13]
18 | 98 |  | O=C(NCCCCCO)C(=O)C(Cc1ccccc1)NC(=O)c1cc(C#Cc2ccccc2)nc2ccccc12 (centres unmarked) [Example 14]
19 | 41 |  | O=C(NC12CC3CC(CC(C3)C1)C2)C(=O)C(Cc1ccccc1)NC(=O)c1cc(C#Cc2ccccc2)nc2ccccc12 (centres unmarked) [Example 15]
20 |  | 78 | O=C(NC1CCCCNC1=O)C(=O)C(Cc1ccccc1)NC(=O)c1cc(C#Cc2ccccc2)nc2ccccc12 (centres unmarked) [Example 22]
21 | 75 |  | O=C(NC(CO)Cc1ccccc1)C(=O)C(Cc1ccccc1)NC(=O)c1cc(C#Cc2ccccc2)nc2ccccc12 (centres unmarked) [Example 23]
22 | 42 |  | CC(C)(C)OC(=O)N=C(NCCCCC(CO)NC(=O)C(=O)C(Cc1ccccc1)NC(=O)c1cc(C#Cc2ccccc2)nc2ccccc12)NC(=O)OC(C)(C)C (centres unmarked) [Example 25]
23 | 31 |  | CC(NC(=O)C(=O)C(Cc1ccccc1)NC(=O)c1cc(C#Cc2ccccc2)nc2ccccc12)c1cccc2ccccc12 (centres unmarked) [Example 26]
24 |  | 510 | CC(NC(=O)C(=O)C(Cc1ccccc1)NC(=O)c1cc(C#Cc2ccccc2)nc2ccccc12)c1ccccc1 (centres unmarked) [Example 27]

Row | inhibition at 10 µM [%] | IC50 [nM] | Compound
25 | 61 |  | O=C(NC1CCCCC1O)C(=O)C(Cc1ccccc1)NC(=O)c1cc(C#Cc2ccccc2)nc2ccccc12 (centres unmarked) [Example 28]
26 | 85 |  | O=C(NC1CCCCC1)C(=O)C(Cc1ccccc1)NC(=O)c1cc(C#Cc2ccccc2)nc2ccccc12 (centres unmarked) [Example 30]
27 |  | 388 | O=C(NCc1ccc2c(c1)OCO2)C(=O)C(Cc1ccccc1)NC(=O)c1cc(C#Cc2ccccc2)nc2ccccc12 (centres unmarked) [Example 33]
28 |  | 227 | O=C(NCCCCc1ccccc1)C(=O)C(Cc1ccccc1)NC(=O)c1cc(C#Cc2ccccc2)nc2ccccc12 (centres unmarked) [Example 34]
29 |  | 79 | O=C(NCc1ccccc1)C(=O)[C@H](Cc1ccccc1)NC(=O)c1cc(C#Cc2ccccc2)nc2ccccc12 [Example 36]
30 |  | 184 | NS(=O)(=O)c1ccc(CNC(=O)C(=O)C(Cc2ccccc2)NC(=O)c2cc(C#Cc3ccccc3)nc3ccccc23)cc1 (centres unmarked) [Example 39]
31 | 95 |  | O=C(NCc1cccc([N+](=O)[O-])c1)C(=O)C(Cc1ccccc1)NC(=O)c1cc(C#Cc2ccccc2)nc2ccccc12 (centres unmarked) [Example 40]
32 | 88 |  | COc1ccc(CCNC(=O)C(=O)C(Cc2ccccc2)NC(=O)c2cc(C#Cc3ccccc3)nc3ccccc23)cc1OC (centres unmarked) [Example 41]
33 |  | 390 | O=C(NCCc1ccccc1)C(=O)C(Cc1ccccc1)NC(=O)c1cc(C#Cc2ccccc2)nc2ccccc12 (centres unmarked) [Example 43]
34 | 85 |  | O=C(NCC(c1ccccc1)c1ccccc1)C(=O)C(Cc1ccccc1)NC(=O)c1cc(C#Cc2ccccc2)nc2ccccc12 (centres unmarked) [Example 44]
35 | 91 |  | O=C(NCc1cccnc1)C(=O)C(Cc1ccccc1)NC(=O)c1cc(C#Cc2ccccc2)nc2ccccc12 (centres unmarked) [Example 46]
36 | 98 |  | O=C(NCc1ccncc1)C(=O)C(Cc1ccccc1)NC(=O)c1cc(C#Cc2ccccc2)nc2ccccc12 (centres unmarked) [Example 47]
37 |  | 160 | COc1ccc2[nH]cc(CCNC(=O)C(=O)C(Cc3ccccc3)NC(=O)c3cc(C#Cc4ccccc4)nc4ccccc34)c2c1 (centres unmarked) [Example 49]
38 | 84 |  | O=C(NCCCn1ccnc1)C(=O)C(Cc1ccccc1)NC(=O)c1cc(C#Cc2ccccc2)nc2ccccc12 (centres unmarked) [Example 50]
39 |  | 424 | O=C(NCCCN1CCOCC1)C(=O)C(Cc1ccccc1)NC(=O)c1cc(C#Cc2ccccc2)nc2ccccc12 (centres unmarked) [Example 51]
40 | 84 |  | O=C(NCC1CCCO1)C(=O)C(Cc1ccccc1)NC(=O)c1cc(C#Cc2ccccc2)nc2ccccc12 (centres unmarked) [Example 54]
41 | 60 |  | O=C(NC1Cc2ccccc2C1)C(=O)C(Cc1ccccc1)NC(=O)c1cc(C#Cc2ccccc2)nc2ccccc12 (centres unmarked) [Example 55]
42 | 71 |  | COc1ccc(C(=O)NCCNC(=O)C(=O)C(Cc2ccccc2)NC(=O)c2cc(C#Cc3ccccc3)nc3ccccc23)cc1 (centres unmarked) [Example 57]
43 |  | 140 | CC(=O)NCCNC(=O)C(=O)C(Cc1ccccc1)NC(=O)c1cc(C#Cc2ccccc2)nc2ccccc12 (centres unmarked) [Example 60]
44 | 94 |  | O=C(NCCNC(=O)C(=O)C(Cc1ccccc1)NC(=O)c1cc(C#Cc2ccccc2)nc2ccccc12)Nc1ccc(Br)cc1 (centres unmarked) [Example 61]
45 |  | 257 | O=C(NCCNC(=O)C(=O)C(Cc1ccccc1)NC(=O)c1cc(C#Cc2ccccc2)nc2ccccc12)NC12CC3CC(CC(C3)C1)C2 (centres unmarked) [Example 63]
46 |  | 67 | O=C(NCCNC(=O)C(=O)C(Cc1ccccc1)NC(=O)c1cc(C#Cc2ccccc2)nc2ccccc12)Nc1ccccc1 (centres unmarked) [Example 64]
47 |  | 89 | O=C(NCCNS(=O)(=O)c1cccc2nsnc12)C(=O)C(Cc1ccccc1)NC(=O)c1cc(C#Cc2ccccc2)nc2ccccc12 (centres unmarked) [Example 71]
